Results from patent publication US20230089867A1, “CYCLIC PENTAMER COMPOUNDS AS PROPROTEIN CONVERTASE SUBTILISIN/KEXIN TYPE 9 (PCSK9) INHIBITORS FOR THE TREATMENT OF METABOLIC DISORDER” (Novartis AG, priority 2018, published 2023).
Read-outs that look alike come from different tables or passages of the source.

Molecular target: human PCSK9 (Homo sapiens, UniProt Q8NBP7)
Assay: PCSK9 ligand binding TR-FRET assay (interference with binding of human PCSK9 to human LDLR)
Details: for Max % inhibition: PCSK9 FRET assay, efficacy (Amax), 100% = 1 uM unlabeled human PCSK9, 0% = DMSO
Summary of the method: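 Threefold compound dilutions were pre-incubated 30 min with PCSK9, after which 4 nM Europium Kryptate-tagged human LDLR ectodomain was added for a further 2 h.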

[1] = TR-FRET, human PCSK9 Alexa Fluor 647 / human LDLR extracellular domain-Europium Kryptate, read-out: PCSK9 FRET Assay IC50

| Max % inhibition [%] | IC50 [1] [nM] | IC50 [nM] | SMILES |
| --- | --- | --- | --- |
| 100.43 | 73.4 | – | COC[C@@H]1NC(=O)[C@H](C)N(Cc2ccc(Cl)cc2Oc2ccc(-c3cnc(CN(C)C)n3C)cc2)C(=O)CCC(=O)N(C)[C@@H](C)CNC(=O)C[C@H](Cc2ccc(Cl)cc2)N(C)C1=O [Compound 195, (2S,5S,8S,13S)-1-(4-chloro-2-(4-(2-((dimethylamino)methyl)-1-methyl-1H-imidazol-5-yl)phenoxy)benzyl)-8-(4-chlorobenzyl)-5-(methoxymethyl)-2,7,13,14-tetramethyl-1,4,7,11,14-pentaazacyclooctadecane-3,6,10,15,18-pentaone] |
| 105.15 | 0.9 | – | COC[C@@H]1NC(=O)[C@H](CC(=O)O)N(Cc2ccc(Cl)cc2Oc2ccc(-c3cnc(CN(C)C)n3C)cc2)C(=O)C[C@@H](Cc2ccccc2)C(=O)N(C)[C@H]2CCCC[C@@H]2NC(=O)C[C@H](Cc2ccc(Cl)cc2)N(C)C1=O [Compound 219, 2-((4S,7S,10S,14R,16aS,20aS)-14-benzyl-11-(4-chloro-2-(4-(2-((dimethylamino)methyl)-1-methyl-1H-imidazol-5-yl)phenoxy)benzyl)-4-(4-chlorobenzyl)-7-(methoxymethyl)-5,16-dimethyl-2,6,9,12,15-pentaoxodocosahydrobenzo[l][1,4,7,11,14]pentaazacyclooctadecin-10-yl)acetic acid] |
| 103.15 | 1.8 | – | COC[C@@H]1NC(=O)[C@H](C)N(Cc2ccc(Cl)cc2Oc2ccc(-c3cnc(CN(C)C)n3C)cc2)C(=O)C[C@@H](Cc2ccccc2)C(=O)N(C)C[C@H](C)NC(=O)C[C@H](Cc2ccc(Cl)cc2)N(C)C1=O [Compound 32, (2S,5S,8S,12S,16R)-16-benzyl-1-(4-chloro-2-(4-(2-((dimethylamino)methyl)-1-methyl-1H-imidazol-5-yl)phenoxy)benzyl)-8-(4-chlorobenzyl)-5-(methoxymethyl)-2,7,12,14-tetramethyl-1,4,7,11,14-pentaazacyclooctadecane-3,6,10,15,18-pentaone] |
| 97.38 | 0.9 | – | C[C@H]1C(=O)N[C@@H](CO)C(=O)N(C)[C@@H](Cc2ccc(Cl)cc2)CC(=O)N[C@H]2CCCC[C@@H]2N(C)C(=O)[C@H](Cc2ccccc2)CC(=O)N1Cc1ccc(Cl)cc1Oc1ccc(-c2cnc(CN(C)C)n2C)cc1 [Compound 243, (4S,7S,10S,14R,16aS,20aS)-14-benzyl-11-(4-chloro-2-(4-(2-((dimethylamino)methyl)-1-methyl-1H-imidazol-5-yl)phenoxy)benzyl)-4-(4-chlorobenzyl)-7-(hydroxymethyl)-5,10,16-trimethylhexadecahydrobenzo[l][1,4,7,11,14]pentaazacyclooctadecine-2,6,9,12,15(3H)-pentaone] |
| – | – | 2.7 | COC[C@@H]1NC(=O)[C@H](C)N(Cc2ccc(Cl)cc2Oc2ccc(-c3cncc(C4CCC(NCCF)CC4)c3)cc2)C(=O)C[C@@H](Cc2ccccc2)C(=O)N(C)[C@@H](C)CNC(=O)C[C@H](Cc2ccc(Cl)cc2)N(C)C1=O (stereo partly drawn) |
| 88.80 | 0.6 | – | COC[C@@H]1NC(=O)[C@H](CCCN)N(Cc2ccc(Cl)cc2Oc2ccc(-c3cnc(CN(C)C)n3C)cc2)C(=O)C[C@@H](Cc2ccccc2)C(=O)N(C)[C@H]2CCCC[C@@H]2NC(=O)C[C@H](Cc2ccc(Cl)cc2)N(C)C1=O [Compound 304, (4S,7S,10S,14R,16aS,20aS)-10-(3-aminopropyl)-14-benzyl-11-(4-chloro-2-(4-(2-((dimethylamino)methyl)-1-methyl-1H-imidazol-5-yl)phenoxy)benzyl)-4-(4-chlorobenzyl)-7-(methoxymethyl)-5,16-dimethylhexadecahydrobenzo[l][1,4,7,11,14]pentaazacyclooctadecine-2,6,9,12,15(3H)-pentaone] |
| 85.21 | 59.8 | – | CCCC#Cc1ncc(-c2ccc(Oc3cc(Cl)ccc3CN3C(=O)C[C@@H](Cc4ccccc4)C(=O)N(C)[C@@H](C)CNC(=O)C[C@H](Cc4ccc(Cl)cc4)N(C)C(=O)[C@H](COC)NC(=O)[C@@H]3C)cc2)n1C [Compound 30, (2S,5S,8S,13S,16R)-16-benzyl-1-(4-chloro-2-(4-(1-methyl-2-(pent-1-yn-1-yl)-1H-imidazol-5-yl)phenoxy)benzyl)-8-(4-chlorobenzyl)-5-(methoxymethyl)-2,7,13,14-tetramethyl-1,4,7,11,14-pentaazacyclooctadecane-3,6,10,15,18-pentaone] |
| – | – | 3.2 | COC[C@@H]1NC(=O)[C@H](C)N(Cc2ccc(Cl)cc2Oc2ccc(-c3cncc(C4CCN(CCF)CC4)c3)cc2)C(=O)C[C@@H](Cc2ccccc2)C(=O)N(C)[C@@H](C)CNC(=O)C[C@H](Cc2ccc(Cl)cc2)N(C)C1=O |
| 94.38 | 1.8 | – | COC[C@@H]1NC(=O)[C@H](C)N(Cc2ccc(Cl)cc2Oc2ccc(-c3cnc(CN4CCCC4)n3C)cc2)C(=O)C[C@@H](Cc2ccccc2)C(=O)N(C)[C@@H](CCCCN(C)C)CNC(=O)C[C@H](Cc2ccc(Cl)cc2)N(C)C1=O.Cl [Compound 43, (2S,5S,8S,13S,16R)-16-benzyl-1-(4-chloro-2-(4-(1-methyl-2-(pyrrolidin-1-ylmethyl)-1H-imidazol-5-yl)phenoxy)benzyl)-8-(4-chlorobenzyl)-13-(4-(dimethylamino)butyl)-5-(methoxymethyl)-2,7,14-trimethyl-1,4,7,11,14-pentaazacyclooctadecane-3,6,10,15,18-pentaone hydrochloride] |
| 83.48 | 9.6 | – | COC[C@@H]1NC(=O)[C@H](C)N(Cc2ccc(Cl)cc2Oc2ccc(-c3cnc(CN(C)C)n3C)cc2)C(=O)C[C@@H](C)C(=O)N(C)[C@@H](CC2CC2)CNC(=O)C[C@H](Cc2ccc(Cl)cc2)N(C)C1=O [Compound 5, (2S,5S,8S,13S,16R)-1-(4-chloro-2-(4-(2-((dimethylamino)methyl)-1-methyl-1H-imidazol-5-yl)phenoxy)benzyl)-8-(4-chlorobenzyl)-13-(cyclopropylmethyl)-5-(methoxymethyl)-2,7,14,16-tetramethyl-1,4,7,11,14-pentaazacyclooctadecane-3,6,10,15,18-pentaone] |
| 67.25 | 4.2 | – | COCC(=O)N1CCc2ncc(-c3ccc(Oc4cc(Cl)ccc4CN4C(=O)C[C@@H](Cc5ccccc5)C(=O)N(C)[C@@H](C)CNC(=O)C[C@H](Cc5ccc(Cl)cc5)N(C)C(=O)[C@H](COC)NC(=O)[C@@H]4C)cc3)cc2C1 [Compound 117, (2S,5S,8S,13S,16R)-16-benzyl-1-(4-chloro-2-(4-(6-(2-methoxyacetyl)-5,6,7,8-tetrahydro-1,6-naphthyridin-3-yl)phenoxy)benzyl)-8-(4-chlorobenzyl)-5-(methoxymethyl)-2,7,13,14-tetramethyl-1,4,7,11,14-pentaazacyclooctadecane-3,6,10,15,18-pentaone] |
| 108.38 | 3.7 | – | COCC[C@H]1C(=O)N[C@@H](COC)C(=O)N(C)[C@@H](Cc2ccc(Cl)cc2)CC(=O)NC[C@H](C)N(C)C(=O)[C@H](Cc2ccccc2)CC(=O)N1Cc1ccc(Cl)cc1Oc1ccc(-c2cnc(CN(C)C)n2C)cc1 [Compound 156, (2S,5S,8S,13S,16R)-16-benzyl-1-(4-chloro-2-(4-(2-((dimethylamino)methyl)-1-methyl-1H-imidazol-5-yl)phenoxy)benzyl)-8-(4-chlorobenzyl)-2-(2-methoxyethyl)-5-(methoxymethyl)-7,13,14-trimethyl-1,4,7,11,14-pentaazacyclooctadecane-3,6,10,15,18-pentaone] |
| 98.10 | 4.9 | – | CC[C@H]1C(=O)N[C@@H](COC)C(=O)N(C)[C@@H](Cc2ccc(Cl)c(F)c2)CC(=O)NC[C@H](C)N(C)C(=O)[C@H](Cc2ccccc2)CC(=O)N1Cc1ccc(Cl)cc1Oc1ccc(-c2cnc(CN(C)C)n2C)cc1 [Compound 209, (2S,5S,8S,13S,16R)-16-benzyl-1-(4-chloro-2-(4-(2-((dimethylamino)methyl)-1-methyl-1H-imidazol-5-yl)phenoxy)benzyl)-8-(4-chloro-3-fluorobenzyl)-2-ethyl-5-(methoxymethyl)-7,13,14-trimethyl-1,4,7,11,14-pentaazacyclooctadecane-3,6,10,15,18-pentaone] |
| 104.70 | 8.8 | – | COC[C@@H]1NC(=O)[C@H](C)N(Cc2ccc(Cl)cc2Oc2ccc(-c3cnc(CN(C)C)n3C)cc2)C(=O)CN2C[C@H](CNC(=O)C[C@H](Cc3ccc(Cl)cc3)N(C)C1=O)N(C)C2=O [Compound 227, (5S,8S,11S,16S)-4-(4-chloro-2-(4-(2-((dimethylamino)methyl)-1-methyl-1H-imidazol-5-yl)phenoxy)benzyl)-11-(4-chlorobenzyl)-8-(methoxymethyl)-5,10,17-trimethyl-1,4,7,10,14,17-hexaazabicyclo[14.2.1]nonadecane-3,6,9,13,18-pentaone] |
| 113.30 | 3 | – | COC[C@@H]1NC(=O)[C@H](C)N(Cc2ccc(Cl)cc2Oc2ccc(-n3cnc(CN(C)C)c3C)cc2)C(=O)C[C@@H](Cc2ccccc2)C(=O)N(C)[C@H]2CCCC[C@@H]2NC(=O)C[C@H](Cc2ccc(Cl)cc2)N(C)C1=O [Compound 292, (4S,7S,10S,14R,16aS,20aS)-14-benzyl-11-(4-chloro-2-(4-(4-((dimethylamino)methyl)-5-methyl-1H-imidazol-1-yl)phenoxy)benzyl)-4-(4-chlorobenzyl)-7-(methoxymethyl)-5,10,16-trimethylhexadecahydrobenzo[l][1,4,7,11,14]pentaazacyclooctadecine-2,6,9,12,15(3H)-pentaone] |
| 103.43 | 9.3 | – | COC[C@@H]1NC(=O)C(C)N(Cc2ccc(Cl)cc2Oc2ccc(-c3cnc(CN(C)C)n3C)cc2)C(=O)C[C@@H](Cc2ccccc2)C(=O)N(C)[C@H]2CCCC[C@@H]2NC(=O)C[C@H](Cc2ccc(Cl)cc2)N(C)C1=O (single isomer, unassigned) [Compound 58] |
